The text below walks through data of ChEMBL document CHEMBL4609983, “Pan-specific and partially selective dye-labeled peptidic inhibitors of the polycomb paralog proteins” (Bioorg Med Chem, 2020).

Non-standard residues stand in square brackets, D forms with d. Residues, ends and D or L forms follow the SMILES beside them. *: point of attachment. X1 = O=C(O)c1cc(NC(=S)*)ccc1-c1c2ccc(=O)cc-2oc2cc(O)ccc12; Lys(Me3) = C[N+](C)(C)CCCC[C@H](N)C(=O)O; Benzoyl(4-Br) = O=C(c1ccc(Br)cc1)*; Gly(cPent) = N[C@H](C(=O)O)C1CCCC1; Abu = CC[C@H](N)C(=O)O; βAla = NCCC(=O)O

In series [1] the target is T1, Chromobox protein homolog 8 (Homo sapiens, UniProt Q9HC52).
T1 sequence (Q9HC52 whole entry): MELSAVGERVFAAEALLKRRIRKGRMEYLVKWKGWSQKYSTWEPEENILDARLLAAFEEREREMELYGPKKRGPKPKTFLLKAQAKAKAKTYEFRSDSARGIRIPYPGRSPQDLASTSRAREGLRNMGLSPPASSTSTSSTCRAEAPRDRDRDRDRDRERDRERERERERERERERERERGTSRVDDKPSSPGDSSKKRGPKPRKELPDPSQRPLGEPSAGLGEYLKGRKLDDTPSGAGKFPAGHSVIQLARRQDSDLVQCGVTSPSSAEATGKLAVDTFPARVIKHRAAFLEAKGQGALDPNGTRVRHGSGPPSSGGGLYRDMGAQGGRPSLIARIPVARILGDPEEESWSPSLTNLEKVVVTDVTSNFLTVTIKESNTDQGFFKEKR
Description: Inhibition of CBX8 (unknown origin) assessed as […] by competitive FP assay.

Series [2] addresses T2, Chromobox protein homolog 7 (Homo sapiens, UniProt O95931).
T2 sequence (O95931 whole entry): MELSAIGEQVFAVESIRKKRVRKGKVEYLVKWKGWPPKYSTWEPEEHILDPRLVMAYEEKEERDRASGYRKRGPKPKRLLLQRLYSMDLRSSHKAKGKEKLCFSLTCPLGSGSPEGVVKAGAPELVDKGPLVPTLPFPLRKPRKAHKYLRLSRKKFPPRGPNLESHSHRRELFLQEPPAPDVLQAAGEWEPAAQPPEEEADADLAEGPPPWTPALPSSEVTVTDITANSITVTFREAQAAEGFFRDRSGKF
The series can be described thus: Inhibition of CBX7 (unknown origin) assessed as […] by competitive FP assay.

For series [3], the species on record is Homo sapiens. Description: Selectivity ratio of IC50 for CBX4 (unknown origin) to IC50 for CBX7 (unknown origin).
For series [4], the species on record is Homo sapiens. Description: Selectivity ratio of IC50 for CBX7 (unknown origin) to IC50 for CBX8 (unknown origin).
The target in series [5] is T3, Chromobox protein homolog 6 (Homo sapiens, UniProt O95503).
T3 sequence (O95503 whole entry): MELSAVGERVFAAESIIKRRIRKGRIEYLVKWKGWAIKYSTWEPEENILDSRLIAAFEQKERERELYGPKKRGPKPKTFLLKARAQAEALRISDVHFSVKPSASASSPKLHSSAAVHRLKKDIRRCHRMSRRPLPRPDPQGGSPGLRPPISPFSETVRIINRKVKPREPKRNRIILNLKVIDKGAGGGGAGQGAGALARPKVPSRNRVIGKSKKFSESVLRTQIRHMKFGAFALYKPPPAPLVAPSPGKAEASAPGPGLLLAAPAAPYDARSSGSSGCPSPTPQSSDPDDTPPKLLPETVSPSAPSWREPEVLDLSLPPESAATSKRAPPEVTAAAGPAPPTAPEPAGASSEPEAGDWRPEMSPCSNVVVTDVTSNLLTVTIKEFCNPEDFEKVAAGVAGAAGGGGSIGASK
The series can be described thus: Inhibition of CBX6 (unknown origin) assessed as […] by competitive FP assay.

Series [6] can be described thus: Drug uptake in nucleus of human PC3 cells by live cell imaging analysis. The format is ADME, cell-based. The following applies: pc-3.
The target of series [7] is T1, Chromobox protein homolog 8. The series can be described thus: Binding affinity to CBX8 (unknown origin) assessed as dissociation constant by fluorescence polarization analysis. In general terms: Fluorescence polarisation rises when a labelled molecule tumbles more slowly, as on binding a larger partner.
Series [8] has as its system TOV21G. Description: Effect on cell cycle in human TOV21G cells by measuring cells distribution at G0 phase. It counts as cell-based.
In series [9] the test system is TOV21G. The series can be described thus: Effect on cell cycle in human TOV21G cells by measuring cells distribution at G2/M phase. The format is cell-based.
Series [10] concerns the target T4, E3 SUMO-protein ligase CBX4 (Homo sapiens, UniProt O00257).
T4 sequence (O00257 whole entry): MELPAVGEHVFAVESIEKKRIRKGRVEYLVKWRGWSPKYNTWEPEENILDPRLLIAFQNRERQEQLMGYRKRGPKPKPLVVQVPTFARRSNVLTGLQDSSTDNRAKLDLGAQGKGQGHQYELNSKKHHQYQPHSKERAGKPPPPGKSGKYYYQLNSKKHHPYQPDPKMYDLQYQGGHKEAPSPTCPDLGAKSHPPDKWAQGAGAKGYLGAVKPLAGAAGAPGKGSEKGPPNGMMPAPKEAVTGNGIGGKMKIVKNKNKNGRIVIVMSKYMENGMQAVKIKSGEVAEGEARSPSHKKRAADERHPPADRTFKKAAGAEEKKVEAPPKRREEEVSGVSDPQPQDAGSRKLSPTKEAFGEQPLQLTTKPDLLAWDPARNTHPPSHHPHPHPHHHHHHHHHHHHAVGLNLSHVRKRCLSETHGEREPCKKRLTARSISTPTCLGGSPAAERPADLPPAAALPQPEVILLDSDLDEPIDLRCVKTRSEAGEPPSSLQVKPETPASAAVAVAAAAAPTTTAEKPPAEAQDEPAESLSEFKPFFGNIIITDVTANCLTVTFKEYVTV
The series can be described thus: Binding affinity to CBX4 (unknown origin) assessed as dissociation constant by fluorescence polarization analysis.

The target of series [11] is T3, Chromobox protein homolog 6. The series can be described thus: Binding affinity to CBX6 (unknown origin) assessed as dissociation constant by fluorescence polarization analysis.
The target in series [12] is T5, Chromobox protein homolog 2 (Homo sapiens, UniProt Q14781).
T5 sequence (Q14781 whole entry): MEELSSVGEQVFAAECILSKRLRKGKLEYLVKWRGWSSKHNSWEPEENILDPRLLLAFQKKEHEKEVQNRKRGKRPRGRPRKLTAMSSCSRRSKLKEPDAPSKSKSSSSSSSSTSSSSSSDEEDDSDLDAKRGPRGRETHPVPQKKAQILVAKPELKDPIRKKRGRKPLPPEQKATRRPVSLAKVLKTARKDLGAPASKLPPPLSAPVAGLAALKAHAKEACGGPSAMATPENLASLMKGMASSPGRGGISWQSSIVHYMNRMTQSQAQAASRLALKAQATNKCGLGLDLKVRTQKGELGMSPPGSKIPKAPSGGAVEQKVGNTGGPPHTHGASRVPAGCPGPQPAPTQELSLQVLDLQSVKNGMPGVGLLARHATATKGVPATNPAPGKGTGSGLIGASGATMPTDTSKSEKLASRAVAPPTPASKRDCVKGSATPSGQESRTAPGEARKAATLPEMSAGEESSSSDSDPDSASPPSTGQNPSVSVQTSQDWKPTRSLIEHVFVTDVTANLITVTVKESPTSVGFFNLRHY
Description: Binding affinity to CBX2 (unknown origin) assessed as dissociation constant by fluorescence polarization analysis.

For series [13], the target named is T2, Chromobox protein homolog 7. The series can be described thus: Binding affinity to CBX7 (unknown origin) assessed as dissociation constant by fluorescence polarization analysis.
Series [14] in a line: Drug uptake in human TOV21G cells by flow cytometric analysis. It counts as ADME, cell-based. In general terms: A flow cytometer gives signals particle by particle.
The nature of series [15]: Drug uptake in human TOV21G cells assessed as endosomal entrapment by measuring characteristic punctate dots in the cytoplasm at 10 uM by cell imaging analysis. It counts as ADME, cell-based.
A short description of series [16]: Drug uptake in cytoplasm of human PC3 cells by live cell imaging analysis. The format is ADME, cell-based. The following applies: pc-3.
Series [17] can be described thus: Drug uptake in cytoplasm of human TOV21G cells by live cell imaging analysis. It counts as ADME, cell-based.
In series [18] the target is Chromobox protein homolog 1 (Homo sapiens, UniProt P83916). The series can be described thus: Binding affinity to CBX1 (unknown origin) assessed as dissociation constant by fluorescence polarization analysis.
The test system of series [19] is TOV21G. The series can be described thus: Effect on cell cycle in human TOV21G cells by measuring cells distribution at S phase. The format is cell-based.
In series [20] the test system is TOV21G. Description: Effect on cell cycle in human TOV21G cells by measuring cells distribution at G1 phase. It counts as cell-based.
A short description of series [21]: Drug uptake in nucleus of human TOV21G cells by live cell imaging analysis. The format is ADME, cell-based.
Series [22] is described as follows: Drug uptake in human PC3 cells assessed as endosomal entrapment by measuring characteristic punctate dots in the cytoplasm at 10 uM by cell imaging analysis. The following applies: pc-3, 10 µM. The format is ADME, cell-based.
For series [23], the species on record is Homo sapiens. Description: Selectivity ratio of Kd for CBX7 (unknown origin) to Kd for CBX8 (unknown origin).
For series [24], the species on record is Homo sapiens. Description: Selectivity ratio of Kd for CBX2 (unknown origin) to Kd for CBX8 (unknown origin).
For series [25], the species on record is Homo sapiens. Description: Selectivity ratio of Kd for CBX4 (unknown origin) to Kd for CBX8 (unknown origin).
The species named for series [26] is Homo sapiens. Description: Selectivity ratio of Kd for CBX1 (unknown origin) to Kd for CBX8 (unknown origin).
For series [27], the species on record is Homo sapiens. Description: Selectivity ratio of Kd for CBX7 (unknown origin) to Kd for CBX6 (unknown origin).

Sequence of Chromobox protein homolog 1 (P83916 whole entry): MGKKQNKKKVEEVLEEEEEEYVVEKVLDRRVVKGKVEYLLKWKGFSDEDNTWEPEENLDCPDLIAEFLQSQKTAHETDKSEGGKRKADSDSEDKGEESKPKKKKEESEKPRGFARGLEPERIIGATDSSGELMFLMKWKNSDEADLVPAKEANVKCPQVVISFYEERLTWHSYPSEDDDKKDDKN

`CC[C@H](NC(=O)[C@H](Cc1ccccc1)NC(=O)c1ccc(Br)cc1)C(=O)N[C@H](C(=O)N[C@@H](CCCC[N+](C)(C)C)C(=O)N[C@@H](CO)C(=O)N[C@@H](CCC(=O)O)C(N)=O)C1CCCC1` ({Benzoyl(4-Br)}-F[Abu][Gly(cPent)][Lys(Me3)]SE-NH2): the IC50 in series [1] amounted to 3.8 µM; in series [2], 8.3 µM; in [5], 2800 nM. The results for the Ratio IC50 in the series filed under Homo sapiens [3] and in the series filed under Homo sapiens [4] were 10 and 2, respectively.
Turning to `CC(C)C[C@H](NC(=O)[C@H](C)NC(=O)[C@H](Cc1ccccc1)NC(=O)[C@H](Cc1ccccc1)NC(=O)CCNC(=S)Nc1ccc(-c2c3ccc(=O)cc-3oc3cc(O)ccc23)c(C(=O)O)c1)C(=O)N[C@@H](CCCC[N+](C)(C)C)C(=O)N[C@@H](CO)C(N)=O` ({X1-βAla}-FFAL[Lys(Me3)]S-NH2), the Drug uptake entry is recorded as “Not Active” in series [6]; “Active” in [14]; “Active” in [15]; “Not Active” in series [16]; “Not Active” in series [17]; “Not Active” in series [21]. Also, the Drug uptake result in [22] was “Active”. Moreover, the Kd turned out to be 1700 nM in [7]; 1.7 µM in series [10]; 1100 nM in series [11]; 3.1 µM in [12]; 1600 nM in series [13]; 47 µM in series [18]. The Activity result in the series with TOV21G [8], with TOV21G [9], with TOV21G [19] and with TOV21G [20] was “Non-Toxic” each time.
As for `CC[C@H](NC(=O)[C@H](Cc1ccccc1)NC(=O)[C@H](Cc1ccccc1)NC(C)=O)C(=O)N[C@H](C(=O)N[C@@H](CCCC[N+](C)(C)C)C(=O)N[C@@H](CO)C(=O)N[C@@H](CCC(=O)O)C(=O)N[C@@H](CCCCNC(=S)Nc1ccc(-c2c3ccc(=O)cc-3oc3cc(O)ccc23)c(C(=O)O)c1)C(N)=O)C1CCCC1` (Ac-FF[Abu][Gly(cPent)][Lys(Me3)]SEK(X1)-NH2), the Kd in series [7] came to 700 nM; in [10] it was 11.3 µM; in [11], 400 nM; in series [12] it was 10 µM; in series [13], 1500 nM; in series [18], 99 µM. The Selectivity ratio is 2 in the series filed under Homo sapiens [23]; 14 to 135 in the series listed under Homo sapiens [24]; 14 to 135 in the series filed under Homo sapiens [25]; 14 to 135 in the series listed under Homo sapiens [26]; 4 in the series filed under Homo sapiens [27].

As usually defined, the IC50 is the point on the concentration scale where inhibition reaches its midpoint. A word on the Kd: it is the concentration at which binding is half-saturated.
